“And” between values parts separate entries of the source, which are not always exact repeats. Identical values can stand only once. Toxic doses and inconclusive results are not listed. No stated cut-off is given here; in the data, active means T/C of 150% or more; inactive means T/C below 125%.
Tested on: L1210 leukemia ip in BDF1 mice, survival T/C
Assay: NCI In Vivo Anticancer Drug Screen. Data for tumor model L1210 Leukemia (intraperitoneal) in B6D2F1 (BDF1) mice
Conditions: endpoint: mean survival time, higher = longer survival
In short: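 Read-out is survival time, reported as the treated-group measurement over the vehicle-control measurement.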

[1] = dose: 100.0 mg/kg/injection, schedule: Q01DX001 (ip), vehicle: carboxymethylcellulose (CMC)
[2] = dose: 200.0 mg/kg/injection, schedule: Q01DX001 (ip), vehicle: carboxymethylcellulose (CMC)
[3] = dose: 400.0 mg/kg/injection, schedule: Q01DX001 (ip), vehicle: carboxymethylcellulose (CMC)
[4] = dose: 100.0 mg/kg/injection, schedule: Q01DX001 (ip), vehicle: other
[5] = dose: 200.0 mg/kg/injection, schedule: Q01DX001 (ip), vehicle: other
[6] = dose: 400.0 mg/kg/injection, schedule: Q01DX001 (ip), vehicle: other
[7] = dose: 25.0 mg/kg/injection, schedule: Q01DX009 (ip), vehicle: Klucel (hydroxypropylcellulose) (HPC)
[8] = dose: 100.0 mg/kg/injection, schedule: Q01DX009 (ip), vehicle: saline
[9] = dose: 100.0 mg/kg/injection, schedule: Q04DX003 (ip), vehicle: saline
[10] = dose: 200.0 mg/kg/injection, schedule: Q04DX003 (ip), vehicle: saline
[11] = dose: 100.0 mg/kg/injection, schedule: Q01DX009 (ip), vehicle: Klucel (hydroxypropylcellulose) (HPC)
[12] = dose: 100.0 mg/kg/injection, schedule: Q04DX003 (ip), vehicle: other
[13] = dose: 200.0 mg/kg/injection, schedule: Q01DX009 (ip), vehicle: Klucel (hydroxypropylcellulose) (HPC)
[14] = dose: 200.0 mg/kg/injection, schedule: Q04DX003 (ip), vehicle: other
[15] = dose: 400.0 mg/kg/injection, schedule: Q04DX003 (ip), vehicle: other
[16] = dose: 400.0 mg/kg/injection, schedule: Q01DX009 (ip), vehicle: Klucel (hydroxypropylcellulose) (HPC)
[17] = dose: 100.0 mg/kg/injection, schedule: Q01DX001 (ip), vehicle: saline
[18] = dose: 200.0 mg/kg/injection, schedule: Q01DX001 (ip), vehicle: saline
[19] = dose: 100.0 mg/kg/injection, schedule: Q04DX003 (ip), vehicle: Klucel (hydroxypropylcellulose) (HPC)
[20] = dose: 200.0 mg/kg/injection, schedule: Q04DX003 (ip), vehicle: Klucel (hydroxypropylcellulose) (HPC)
[21] = dose: 400.0 mg/kg/injection, schedule: Q04DX003 (ip), vehicle: Klucel (hydroxypropylcellulose) (HPC)

Measured: T/C

CC(O)CN(c1ccccc1)c1ccccc1 (stereo unspecified)
inactive: [1] 101 % of control | [2] 92 % of control | [3] 95 % of control

Cc1ccc(NC2=CC(=O)C(=O)c3ccccc32)cc1
inactive: [4] 103 % of control | [5] 98 % of control | [6] 92 % of control

O[C@H](c1cc(C(F)(F)F)nc2c(C(F)(F)F)cccc12)[C@@H]1CCCCN1
inactive: dose: 12.5 mg/kg/injection, schedule: Q01DX009 (ip), vehicle: Klucel (hydroxypropylcellulose) (HPC) 94 % of control | dose: 12.5 mg/kg/injection, schedule: Q04DX003 (ip), vehicle: saline 98 % of control | [7] 103 % of control | dose: 25.0 mg/kg/injection, schedule: Q04DX003 (ip), vehicle: saline 98 % of control | dose: 50.0 mg/kg/injection, schedule: Q04DX003 (ip), vehicle: saline 97 % of control

O=C(Nc1ccc(F)cc1)Oc1ccc(OCc2ccccc2)cc1
inactive: [1] 95 % of control | dose: 100.0 mg/kg/injection, schedule: Q01DX009 (ip), vehicle: carboxymethylcellulose (CMC) 99 % of control and 103 % of control | dose: 100.0 mg/kg/injection, schedule: Q04DX002 (ip), vehicle: carboxymethylcellulose (CMC) 93 % of control and 98 % of control | [2] 101 % of control | dose: 200.0 mg/kg/injection, schedule: Q01DX009 (ip), vehicle: carboxymethylcellulose (CMC) 95 % of control and 99 % of control | dose: 200.0 mg/kg/injection, schedule: Q04DX002 (ip), vehicle: carboxymethylcellulose (CMC) 98 % of control and 100 % of control | [3] 101 % of control | dose: 400.0 mg/kg/injection, schedule: Q01DX009 (ip), vehicle: carboxymethylcellulose (CMC) 95 % of control and 91 % of control | dose: 400.0 mg/kg/injection, schedule: Q04DX002 (ip), vehicle: carboxymethylcellulose (CMC) 96 % of control and 100 % of control

COc1c(Br)cc(C(=O)C(C)C)c(O)c1C
inactive: dose: 75.0 mg/kg/injection, schedule: Q04DX003 (ip), vehicle: Klucel (hydroxypropylcellulose) (HPC) 95 % of control | dose: 150.0 mg/kg/injection, schedule: Q04DX003 (ip), vehicle: Klucel (hydroxypropylcellulose) (HPC) 103 % of control | dose: 300.0 mg/kg/injection, schedule: Q04DX003 (ip), vehicle: Klucel (hydroxypropylcellulose) (HPC) 95 % of control

C[n+]1ccccc1SC12CC3CC(CC(C3)C1)C2
inactive: dose: 10.0 mg/kg/injection, schedule: Q01DX009 (ip), vehicle: Klucel (hydroxypropylcellulose) (HPC) 113 % of control

CCCCCCCCC(=O)N(C)CCO
inactive: dose: 25.0 mg/kg/injection, schedule: Q01DX009 (ip), vehicle: saline 104 % of control | dose: 50.0 mg/kg/injection, schedule: Q01DX009 (ip), vehicle: saline 96 % of control | [8] 100 % of control | [9] 109 % of control | dose: 200.0 mg/kg/injection, schedule: Q04DX003 (ip), vehicle: saline with Tween-80 95 % of control | [10] 98 % of control

CN(C)S(=O)(=O)c1ccc(NC(=O)C(Cl)(Cl)Cl)cc1
inactive: [4] 104 % of control | [11] 94 % of control | [12] 101 % of control | [5] 96 % of control | [13] 92 % of control | [14] 95 % of control | [6] 98 % of control | [15] 93 % of control

O=C(Nc1ccc([N+](=O)[O-])cc1Cl)Sc1ccccc1O
inactive: dose: 100.0 mg/kg/injection, schedule: Q01DX009 (ip), vehicle: saline with Tween-80 104 % of control | dose: 200.0 mg/kg/injection, schedule: Q01DX009 (ip), vehicle: saline with Tween-80 104 % of control | dose: 400.0 mg/kg/injection, schedule: Q01DX009 (ip), vehicle: saline with Tween-80 86 % of control

Cc1cc2oc(/C=N/NC(N)=S)c(C)c2cc1C
inactive: [11] 100 % of control | [13] 99 % of control | [16] 105 % of control

CC(=O)OCc1ccnc2ccc(OC(C)=O)cc12
inactive: [17] 100 % of control | [18] 98 % of control | dose: 400.0 mg/kg/injection, schedule: Q01DX001 (ip), vehicle: saline 96 % of control

Cn1cnc(N)c1S(=O)(=O)Nc1cccc2ccccc12
inactive: [12] 100 % of control | [14] 102 % of control | [15] 101 % of control

COc1ccccc1C(=O)N/N=C/c1ccccc1Cl
inactive: [7] 96 % of control | dose: 50.0 mg/kg/injection, schedule: Q01DX009 (ip), vehicle: Klucel (hydroxypropylcellulose) (HPC) 96 % of control | [11] 104 % of control and 105 % of control | [19] 108 % of control | [13] 108 % of control | [20] 111 % of control | [16] 103 % of control | [21] 108 % of control

COc1ccc(Cl)cc1NC(=O)Nc1ccc(Nc2ccccc2)cc1
inactive: [11] 104 % of control | [19] 101 % of control | [13] 101 % of control | [20] 98 % of control | [16] 86 % of control | [21] 97 % of control

C=C(Br)CN(CCCC)C(C)=O
inactive: [11] 100 % of control | [19] 103 % of control | [13] 108 % of control | [20] 100 % of control and 92 % of control

CC(C)(N)COS(=O)(=O)O
inactive: [8] 106 % of control | [9] 101 % of control | dose: 200.0 mg/kg/injection, schedule: Q01DX009 (ip), vehicle: saline 96 % of control | [10] 114 % of control | dose: 400.0 mg/kg/injection, schedule: Q01DX009 (ip), vehicle: saline 105 % of control | dose: 400.0 mg/kg/injection, schedule: Q04DX003 (ip), vehicle: saline 96 % of control

O=C(OCC1OC(n2nnc3ccnc(Cl)c32)C(OC(=O)c2ccccc2)C1OC(=O)c1ccccc1)c1ccccc1 (stereo unspecified)
inactive: dose: 50.0 mg/kg/injection, schedule: Q01DX005 (ip), vehicle: saline with Tween-80 93 % of control | dose: 100.0 mg/kg/injection, schedule: Q01DX005 (ip), vehicle: saline with Tween-80 98 % of control | dose: 200.0 mg/kg/injection, schedule: Q01DX005 (ip), vehicle: saline with Tween-80 104 % of control

O=C(CS(=O)(=O)O)Nc1ccccc1
inactive: dose: 100.0 mg/kg/injection, schedule: Q01DX001 (ip), vehicle: saline with Tween-80 94 % of control | dose: 200.0 mg/kg/injection, schedule: Q01DX001 (ip), vehicle: saline with Tween-80 97 % of control | dose: 400.0 mg/kg/injection, schedule: Q01DX001 (ip), vehicle: saline with Tween-80 100 % of control

Nc1ncnc2c1ccn2C1CCCC1
inactive: dose: 25.0 mg/kg/injection, schedule: Q01DX001 (ip), vehicle: carboxymethylcellulose (CMC) 100 % of control | dose: 50.0 mg/kg/injection, schedule: Q01DX001 (ip), vehicle: carboxymethylcellulose (CMC) 111 % of control | [1] 105 % of control

CNC(=S)SC
inactive: dose: 50.0 mg/kg/injection, schedule: Q01DX001 (ip), vehicle: saline 90 % of control | [17] 98 % of control | [18] 96 % of control

Source: PubChem BioAssay AID248 (DTP/NCI, 2004)
